Results on ten compounds are retold here after ChEMBL document CHEMBL3045968, “Antitumor activities of some new 1,3,2-oxaza- and 1,3,2-diazaphosphorinanes against K562, MDA-MB-231, and HepG2 cells” (Med Chem Res, 2012).

Data set [1] relates to HepG2. Description: cells. The conditions noted are these: Homo sapiens, HepG2, 48 h.
Description: Cytotoxicity against Homo sapiens (human) HepG2 cells after 48 hr by MTT assay
Data set [2] has as its system K562. Description: cells. The conditions noted are these: Homo sapiens, K562, 48 h.
Description: Cytotoxicity against Homo sapiens (human) K562 cells after 48 hr by MTT assay
Data set [3] relates to MDA-MB-231. Briefly: cells. The conditions noted are these: Homo sapiens, MDA-MB-231, 48 h.
Description: Cytotoxicity against Homo sapiens (human) MDA-MB-231 cells after 48 hr by MTT assay
Data set [4] in a line: physchem. The conditions noted are these: octanol/water.
Description: Lipophilicity, log P of the compound
The conditions of data set [5]: octanol/water.
Description: Lipophilicity, log P of the compound

SMILES strings stand for the structures.

In the case of `NS(=O)(=O)c1ccc(NP2(=O)NCCCO2)cc1` (stereo not drawn), the IC50 in data set [1] was 0.14 µM; in data set [2] it was 0.15 µM; in data set [3] it was 0.17 µM. Besides, the logP in data set [4] was 1.88.
In the case of `O=[N+]([O-])c1ccc(NP2(=O)NCCCO2)cc1` (stereo not drawn), the IC50 in data set [1] turned out to be 0.15 µM; in data set [2], 0.89 µM; in data set [3] it was 0.09 µM. This compound also had a logP in data set [4] of -0.53.
For the compound `COc1ccc(NP2(=O)NCCCO2)cc1` (stereo not drawn), the values for the concentration for half-maximal inhibition (IC50) in data set [1], in data set [2] and in data set [3] were 0.06 µM, 0.2 µM and 0.23 µM, respectively. In addition, in data set [4], the logP was -0.71.
As to `Cc1ccc(OP2(=O)NCCCO2)cc1` (stereo not drawn), the half-maximal inhibitory concentration (IC50) in data set [1] turned out to be 0.59 µM; in data set [2], 0.71 µM; in data set [3], 0.87 µM. The compound also came in with a log partition coefficient (logP) in data set [4] of 0.76.
As for `NS(=O)(=O)c1ccc(NP2(=O)NCCCN2)cc1`, the IC50 in data set [1] came out at 0.13 µM; in data set [2], 0.19 µM; in data set [3], 0.11 µM. In addition, the logP in data set [4] was determined as 1.56.
Take `Nc1ccc(S(N)(=O)=O)cc1` [SULFANILAMIDE]: the IC50 in data set [1] turned out to be 0.08 µM; in data set [2] it was 0.2 µM; in data set [3], 0.09 µM.
Regarding `O=P1(N(CCCl)CCCl)NCCCO1` (stereo not drawn) [CYCLOPHOSPHAMIDE ANHYDROUS], the IC50 came out at 0.24 µM in data set [1], 0.15 µM in data set [2] and 0.09 µM in data set [3].
Consider `Cc1ccc(OP2(=O)NCC(C)(C)CN2)cc1`, for which the IC50 in data set [1] is 2.2 µM; in data set [2], 1.44 µM; in data set [3], 0.23 µM. Further, the logP in data set [5] is listed as 0.12.
On to `O=P1(Nc2ccccc2)NCCCO1` (stereo not drawn), for which the IC50 was 0.6 µM in data set [1], 0.55 µM in data set [2] and 0.83 µM in data set [3]. In data set [4], this compound yielded a logP of 0.29.
Turning to `CC1(C)CNP(=O)(Nc2ccccc2)NC1`, the IC50 stood at 3.17 µM in data set [1], 3.11 µM in data set [2] and 2.04 µM in data set [3]. In data set [4], this compound registered a lipophilicity (logP) of -0.03.

One may read the IC50 as the point on the concentration scale where inhibition reaches its midpoint. Broadly, the logP is a log measure of how a compound divides between an organic and an aqueous phase.
